In data set [1] the target is Oxysterols receptor LXR-beta (Homo sapiens) (UniProt P55055). In words: Agonist activity at LXRbeta expressed in african green monkey CV1 cells co-expressing LXRE by luciferase reporter gene assay. The class given is functional, cell-based. To be noted: CV-1. In general terms: Reporter assays use an easily measured gene product as a stand-in for the process of interest.

Data set [2] has as its target T1, Estrogen receptor (Homo sapiens) (UniProt P03372).
T1 sequence (whole entry): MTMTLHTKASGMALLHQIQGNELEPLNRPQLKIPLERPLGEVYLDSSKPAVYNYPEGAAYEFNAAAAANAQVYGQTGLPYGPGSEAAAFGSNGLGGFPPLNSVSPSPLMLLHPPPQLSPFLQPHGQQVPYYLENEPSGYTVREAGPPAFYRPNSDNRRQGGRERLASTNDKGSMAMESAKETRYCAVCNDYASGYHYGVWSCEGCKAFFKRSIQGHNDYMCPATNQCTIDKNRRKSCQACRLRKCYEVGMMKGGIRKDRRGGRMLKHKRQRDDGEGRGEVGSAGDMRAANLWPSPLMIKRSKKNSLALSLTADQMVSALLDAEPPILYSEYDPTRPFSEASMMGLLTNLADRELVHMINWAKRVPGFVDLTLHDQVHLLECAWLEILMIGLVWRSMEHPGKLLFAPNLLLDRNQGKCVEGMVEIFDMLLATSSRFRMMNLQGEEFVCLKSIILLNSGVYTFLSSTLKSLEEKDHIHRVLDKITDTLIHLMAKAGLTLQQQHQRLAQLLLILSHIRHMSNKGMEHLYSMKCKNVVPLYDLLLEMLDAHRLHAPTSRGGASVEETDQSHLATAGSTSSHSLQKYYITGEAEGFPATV
The data set is described as follows: Agonist activity at gal-ERalpha expressed in african green monkey CV1 cells co-expressing MH100 by luciferase reporter gene assay. The class given is functional, cell-based. To be noted: CV-1.

The target of data set [3] is T2, Glucocorticoid receptor (Homo sapiens) (UniProt P04150).
T2 sequence (whole entry): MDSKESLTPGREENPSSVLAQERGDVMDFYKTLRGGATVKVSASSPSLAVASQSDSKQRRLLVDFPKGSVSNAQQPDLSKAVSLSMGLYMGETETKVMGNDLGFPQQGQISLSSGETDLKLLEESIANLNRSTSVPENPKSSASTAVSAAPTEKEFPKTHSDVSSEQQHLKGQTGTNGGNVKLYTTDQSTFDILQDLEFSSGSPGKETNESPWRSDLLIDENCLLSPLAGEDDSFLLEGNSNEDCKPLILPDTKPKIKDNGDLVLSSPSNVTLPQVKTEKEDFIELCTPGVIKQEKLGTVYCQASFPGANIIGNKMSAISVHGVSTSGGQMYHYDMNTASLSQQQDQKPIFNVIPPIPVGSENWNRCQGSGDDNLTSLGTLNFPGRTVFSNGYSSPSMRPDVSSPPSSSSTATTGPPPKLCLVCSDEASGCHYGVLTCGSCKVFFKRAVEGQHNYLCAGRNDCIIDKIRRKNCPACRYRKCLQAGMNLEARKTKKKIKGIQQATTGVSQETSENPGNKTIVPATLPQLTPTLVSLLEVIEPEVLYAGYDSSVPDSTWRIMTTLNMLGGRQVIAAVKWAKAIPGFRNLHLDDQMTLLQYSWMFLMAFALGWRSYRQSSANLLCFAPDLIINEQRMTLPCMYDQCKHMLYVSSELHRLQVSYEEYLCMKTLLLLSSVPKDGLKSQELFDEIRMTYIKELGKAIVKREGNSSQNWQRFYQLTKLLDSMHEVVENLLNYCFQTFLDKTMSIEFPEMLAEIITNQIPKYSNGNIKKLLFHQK
In words: Agonist activity at gal-GR expressed in african green monkey CV1 cells co-expressing MH100 by luciferase reporter gene assay. The class given is functional, cell-based. To be noted: CV-1.

For data set [4], the target named is Retinoic acid receptor gamma (Homo sapiens) (UniProt P13631). The data set is described as follows: Agonist activity at gal-RARgamma expressed in african green monkey CV1 cells co-expressing MH100 up to 10 uM by luciferase reporter gene assay relative to control. The class given is functional, cell-based. To be noted: CV-1.
The target of data set [5] is Nuclear receptor subfamily 1 group I member 2 (Homo sapiens, UniProt O75469). In words: Agonist activity at SXR expressed in african green monkey CV1 cells co-expressing MH100 up to 10 uM by luciferase reporter gene assay relative to control. The class given is functional, cell-based. To be noted: cv-1.
Data set [6] concerns the target Estrogen receptor beta (Homo sapiens) (UniProt Q92731). The data set is described as follows: Agonist activity at gal-ERbeta expressed in african green monkey CV1 cells co-expressing MH100 up to 10 uM by luciferase reporter gene assay relative to control. The class given is functional, cell-based. To be noted: CV-1.
The target in data set [7] is T2, Glucocorticoid receptor (Homo sapiens). The data set is described as follows: Agonist activity at gal-GR expressed in african green monkey CV1 cells co-expressing MH100 up to 10 uM by luciferase reporter gene assay relative to control. The class given is functional, cell-based. Conditions: CV-1.
Data set [8] has as its target T3, Peroxisome proliferator-activated receptor delta (Homo sapiens) (UniProt Q03181).
T3 sequence (whole entry): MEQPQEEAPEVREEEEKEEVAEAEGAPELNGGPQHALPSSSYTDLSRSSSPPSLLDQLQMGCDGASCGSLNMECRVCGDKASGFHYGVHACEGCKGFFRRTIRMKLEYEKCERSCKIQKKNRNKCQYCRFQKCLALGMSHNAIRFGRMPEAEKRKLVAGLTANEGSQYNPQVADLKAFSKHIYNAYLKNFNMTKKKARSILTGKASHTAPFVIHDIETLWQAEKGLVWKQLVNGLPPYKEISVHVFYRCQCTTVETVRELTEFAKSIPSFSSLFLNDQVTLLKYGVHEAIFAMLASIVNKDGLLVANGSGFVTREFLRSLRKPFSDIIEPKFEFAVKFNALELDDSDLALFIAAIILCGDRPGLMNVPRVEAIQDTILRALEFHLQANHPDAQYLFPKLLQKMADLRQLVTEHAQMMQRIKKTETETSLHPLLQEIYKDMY
In words: Antagonist activity at PPARdelta expressed in african green monkey CV1 cells co-expressing MH100 by luciferase reporter gene assay. The class given is functional, cell-based. Conditions: CV-1.

The target of data set [9] is Estrogen receptor (Homo sapiens, UniProt P03372). In words: Antagonist activity at gal-ERalpha expressed in african green monkey CV1 cells co-expressing MH100 by luciferase reporter gene assay. The class given is functional, cell-based, CV-1.
Data set [10] concerns the target Estrogen receptor beta (Homo sapiens) (UniProt Q92731). The data set is described as follows: Antagonist activity at gal-ERbeta expressed in african green monkey CV1 cells co-expressing MH100 by luciferase reporter gene assay. The class given is functional, cell-based. Conditions: CV-1.
Data set [11] addresses Androgen receptor (Homo sapiens, UniProt P10275). In words: Antagonist activity at gal-AR expressed in african green monkey CV1 cells co-expressing MH100 with GRIP1 co-factor by luciferase reporter gene assay. The class given is functional, cell-based, CV-1.
A short description of data set [12]: Cmax in CD rat at 3 mg/kg, iv. The class given is ADME, organism-based. The arrangement: dose 3 mg/kg, route intravenous. Conditions: in vivo.
The nature of data set [13]: Cmax in CD rat at 3 mg/kg, po. The class given is ADME, organism-based. Conditions: in vivo. The arrangement: dose 3 mg/kg, route oral.
Data set [14] can be described thus: Half life in CD rat at 3 mg/kg, po. The class given is ADME, organism-based. The arrangement: dose 3 mg/kg, route oral. Conditions: in vivo.
Data set [15] relates to Mus musculus. In words: Reduction of plasma triglyceride level in C57BL/6 mouse at 10 mg/kg, po administered for 7 days measured after 3 hrs. The class given is ADME, organism-based. The arrangement: dose 10 mg/kg, route oral. To be noted: in vivo.
Data set [16] deals with Rattus norvegicus. In words: Clearance in CD rat assessed as liver blood flow at 3 mg/kg. The class given is ADME, organism-based. The arrangement: dose 3 mg/kg. Conditions: in vivo.
Data set [17] concerns Mus musculus. In words: Inhibition of preatherosclerotic lesion in LDLR knockout mouse model at 3 mg/kg, po administered for 6 weeks by en-face analysis. The class given is functional. Further details: scale not given: the % may be the effect or the level left.
Data set [18] can be described thus: Oral bioavailability in CD rat at 3 mg/kg. The class given is ADME, organism-based. Conditions: in vivo.

Each structure is given as a SMILES string. The source made the active and inactive calls.

Estrogen receptor beta (Homo sapiens), sequence (Q92731 whole entry): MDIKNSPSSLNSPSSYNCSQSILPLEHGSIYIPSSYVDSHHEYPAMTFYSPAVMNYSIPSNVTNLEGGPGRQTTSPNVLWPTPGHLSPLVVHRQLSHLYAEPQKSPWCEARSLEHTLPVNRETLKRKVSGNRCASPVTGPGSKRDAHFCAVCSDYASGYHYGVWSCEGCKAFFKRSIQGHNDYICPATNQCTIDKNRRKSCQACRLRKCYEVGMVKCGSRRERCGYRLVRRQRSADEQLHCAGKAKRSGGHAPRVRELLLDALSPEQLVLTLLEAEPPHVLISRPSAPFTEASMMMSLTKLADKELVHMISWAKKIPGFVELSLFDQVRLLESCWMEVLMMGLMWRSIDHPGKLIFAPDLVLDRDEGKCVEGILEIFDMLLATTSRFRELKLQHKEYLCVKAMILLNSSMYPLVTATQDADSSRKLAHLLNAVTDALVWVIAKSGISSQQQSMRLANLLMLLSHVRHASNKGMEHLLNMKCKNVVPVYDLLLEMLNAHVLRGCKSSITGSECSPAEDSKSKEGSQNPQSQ
Nuclear receptor subfamily 1 group I member 2, sequence (O75469 whole entry): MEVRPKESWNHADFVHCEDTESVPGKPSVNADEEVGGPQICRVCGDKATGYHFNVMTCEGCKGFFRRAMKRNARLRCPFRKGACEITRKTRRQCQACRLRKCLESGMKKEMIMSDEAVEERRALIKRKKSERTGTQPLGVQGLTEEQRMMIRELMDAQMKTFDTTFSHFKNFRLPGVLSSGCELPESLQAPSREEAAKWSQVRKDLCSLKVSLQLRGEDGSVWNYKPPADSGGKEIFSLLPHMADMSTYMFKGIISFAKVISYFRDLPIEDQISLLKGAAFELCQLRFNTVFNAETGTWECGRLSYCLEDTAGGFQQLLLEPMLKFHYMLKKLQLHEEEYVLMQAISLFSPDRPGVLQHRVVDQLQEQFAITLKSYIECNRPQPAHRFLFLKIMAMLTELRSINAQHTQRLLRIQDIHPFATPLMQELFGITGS
Oxysterols receptor LXR-beta (Homo sapiens), sequence (P55055 whole entry): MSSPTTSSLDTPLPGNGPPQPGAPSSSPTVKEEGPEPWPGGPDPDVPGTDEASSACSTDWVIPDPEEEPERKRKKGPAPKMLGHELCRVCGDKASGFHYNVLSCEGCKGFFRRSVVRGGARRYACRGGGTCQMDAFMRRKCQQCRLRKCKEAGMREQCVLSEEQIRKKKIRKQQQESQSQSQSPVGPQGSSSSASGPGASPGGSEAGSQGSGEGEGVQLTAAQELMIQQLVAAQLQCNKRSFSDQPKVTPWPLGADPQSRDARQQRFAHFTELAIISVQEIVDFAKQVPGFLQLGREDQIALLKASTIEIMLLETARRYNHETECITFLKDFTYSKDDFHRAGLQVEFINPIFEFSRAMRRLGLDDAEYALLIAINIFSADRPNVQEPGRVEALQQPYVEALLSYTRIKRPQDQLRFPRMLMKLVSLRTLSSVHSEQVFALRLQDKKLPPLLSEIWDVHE
Retinoic acid receptor gamma (Homo sapiens), sequence (P13631 whole entry): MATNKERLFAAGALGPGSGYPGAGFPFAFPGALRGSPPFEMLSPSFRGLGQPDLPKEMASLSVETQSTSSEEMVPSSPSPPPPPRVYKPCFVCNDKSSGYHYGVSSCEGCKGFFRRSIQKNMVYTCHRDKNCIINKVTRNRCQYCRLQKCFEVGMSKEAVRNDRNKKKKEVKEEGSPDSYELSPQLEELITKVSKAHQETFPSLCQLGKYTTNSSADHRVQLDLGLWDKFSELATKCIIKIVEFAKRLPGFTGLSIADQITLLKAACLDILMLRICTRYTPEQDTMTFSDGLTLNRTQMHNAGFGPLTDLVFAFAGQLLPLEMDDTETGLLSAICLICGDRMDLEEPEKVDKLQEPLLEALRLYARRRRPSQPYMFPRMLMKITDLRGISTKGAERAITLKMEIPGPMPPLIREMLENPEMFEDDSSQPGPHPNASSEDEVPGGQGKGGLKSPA
Androgen receptor, sequence (P10275 whole entry): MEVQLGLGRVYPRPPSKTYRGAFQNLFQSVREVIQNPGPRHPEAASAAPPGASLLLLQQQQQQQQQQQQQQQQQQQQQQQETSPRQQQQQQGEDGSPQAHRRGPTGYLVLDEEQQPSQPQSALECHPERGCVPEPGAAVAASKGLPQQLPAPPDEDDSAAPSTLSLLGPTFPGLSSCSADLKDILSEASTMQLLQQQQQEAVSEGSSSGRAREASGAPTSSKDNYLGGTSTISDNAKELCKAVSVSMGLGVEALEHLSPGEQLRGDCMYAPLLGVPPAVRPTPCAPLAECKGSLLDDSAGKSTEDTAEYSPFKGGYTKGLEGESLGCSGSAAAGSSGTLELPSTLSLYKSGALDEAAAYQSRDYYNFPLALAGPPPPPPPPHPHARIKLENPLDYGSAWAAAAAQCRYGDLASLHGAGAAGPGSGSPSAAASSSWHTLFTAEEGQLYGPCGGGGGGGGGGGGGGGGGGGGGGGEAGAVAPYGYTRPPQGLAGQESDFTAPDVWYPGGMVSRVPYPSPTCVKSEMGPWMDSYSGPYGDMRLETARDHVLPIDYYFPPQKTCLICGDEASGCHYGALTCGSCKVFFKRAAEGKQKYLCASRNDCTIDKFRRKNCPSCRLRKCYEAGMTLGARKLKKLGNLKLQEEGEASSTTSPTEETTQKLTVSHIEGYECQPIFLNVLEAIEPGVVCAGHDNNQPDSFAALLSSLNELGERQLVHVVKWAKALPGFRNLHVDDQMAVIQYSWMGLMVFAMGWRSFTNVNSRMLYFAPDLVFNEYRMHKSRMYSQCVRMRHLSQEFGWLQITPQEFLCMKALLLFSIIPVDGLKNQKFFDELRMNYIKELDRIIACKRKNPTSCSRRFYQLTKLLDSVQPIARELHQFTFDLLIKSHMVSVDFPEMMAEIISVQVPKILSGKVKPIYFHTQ

On to `CC(C)OC(=O)C1=CN(C(=O)c2ccc(F)c(F)c2)CC(C)(C)c2c1[nH]c1ccccc21` [TUROFEXORATE ISOPROPYL], for which the outcome in data set [1], in data set [2], in [3], in data set [4], in data set [6] and in [7] was inactive. The outcome in data set [8] and in data set [10] was inactive. Moreover, the Activity entry is “Not Active” in data set [5], 62 mg/dL in [15] and 36% in data set [17]. The IC50 in data set [9] and in data set [11] was 10 µM throughout. In addition, the results for the Cmax in data set [12] and in data set [13] were 30.5 µM and 0.5 µM, respectively. Further, in [14], the half-life (in general, the time needed for the level to fall by half in the phase considered) is 24.6 h. For the same compound, the LBF in data set [16] is on record as 10%. Further, the bioavailability (as a rule, the share of a dose that reaches the circulation, judged against a reference dose that is usually intravenous) in [18] came to 37.6%.

These data come from ChEMBL document CHEMBL1140941 (J Med Chem, 2009).
